Data reported in US20050143382A1 (4SC AG, priority 2003, published 2005).

What was measured:
Type in all cases: biochemical
Conditions in all cases: recombinant human kinase, 1 μM ATP
IGF-1 R = biological target: T1, IGF-1 R (Homo sapiens, UniProt P08069); test: 33PanQinase protein kinase activity assay, IGF-1 R
T1 construct: made in house; host or cells: Sf9 insect cells (baculovirus)
Procedure: (§1) The effect of the farazanopyrazine derivatives was tested on recombinant, human protein kinases. All protein kinases were expressed in Sf9 insect cells as human recombinant GST-fusion proteins or as His-tagged proteins by means of the baculovirus expression system. Protein kinases were purified by affinity chromatography using either GSH-agarose or Ni-NTH-agarose. The purity and identity of each was checked by SDS-PAGE/silver staining and by western blot analysis with specific antibodies.
(§2) A proprietary protein kinase assay (^33 PanQinase® Activity Assay) was used for measuring the kinase activity. All kinase assays were performed in 96-well FlashPlates™ in a 50 μl reaction volume. The assay for all enzymes contained 60 mM HEPES-NaOH, pH 7.5, 3 mM MgCl2, 3 mM MnCl2, 3 μM Na-orthovanadate, 1.2 mM DTT, 50 μg/ml PEG20000 and 1 μM [γ-^33P]-ATP (approx. 5×10^5 cpm per well).
(§3) The reaction cocktails were incubated at 30° C. for 80 minutes. The reaction was stopped with 50 μl of 2% (v/v) H3PO4, plates were aspirated and washed two times with 200 μl of 0.9% (w/v) NaCl. Incorporation of 33Pi was determined with a microplate scintillation counter. All assays were performed with a BeckmanCoulter/Sagian robotic system.

SRC kinase = biological target: T2, SRC kinase (Homo sapiens, UniProt P12931); test: 33PanQinase protein kinase activity assay, SRC
T2 construct: made in house; host or cells: Sf9 insect cells (baculovirus)
T2 sequence (P12931 whole entry): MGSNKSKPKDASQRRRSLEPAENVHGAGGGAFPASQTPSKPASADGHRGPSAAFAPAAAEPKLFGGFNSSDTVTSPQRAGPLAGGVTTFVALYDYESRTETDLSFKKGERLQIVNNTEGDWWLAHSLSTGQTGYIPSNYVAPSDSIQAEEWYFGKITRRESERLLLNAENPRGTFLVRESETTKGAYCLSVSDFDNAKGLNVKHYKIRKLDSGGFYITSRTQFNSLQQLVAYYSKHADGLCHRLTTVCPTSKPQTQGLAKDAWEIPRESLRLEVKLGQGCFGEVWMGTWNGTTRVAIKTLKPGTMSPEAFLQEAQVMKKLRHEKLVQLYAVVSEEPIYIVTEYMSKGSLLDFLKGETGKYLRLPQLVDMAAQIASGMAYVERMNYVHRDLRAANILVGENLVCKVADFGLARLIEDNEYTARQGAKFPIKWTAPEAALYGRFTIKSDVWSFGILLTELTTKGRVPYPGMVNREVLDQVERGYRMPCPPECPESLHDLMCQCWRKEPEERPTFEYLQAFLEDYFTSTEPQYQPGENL
Procedure: as §1, §2, §3

VEGF-R2 = biological target: T3, VEGF-R2 (Homo sapiens, UniProt P35968); test: 33PanQinase protein kinase activity assay, VEGF-R2
T3 construct: made in house; host or cells: Sf9 insect cells (baculovirus)
T3 sequence (P35968 20-1356): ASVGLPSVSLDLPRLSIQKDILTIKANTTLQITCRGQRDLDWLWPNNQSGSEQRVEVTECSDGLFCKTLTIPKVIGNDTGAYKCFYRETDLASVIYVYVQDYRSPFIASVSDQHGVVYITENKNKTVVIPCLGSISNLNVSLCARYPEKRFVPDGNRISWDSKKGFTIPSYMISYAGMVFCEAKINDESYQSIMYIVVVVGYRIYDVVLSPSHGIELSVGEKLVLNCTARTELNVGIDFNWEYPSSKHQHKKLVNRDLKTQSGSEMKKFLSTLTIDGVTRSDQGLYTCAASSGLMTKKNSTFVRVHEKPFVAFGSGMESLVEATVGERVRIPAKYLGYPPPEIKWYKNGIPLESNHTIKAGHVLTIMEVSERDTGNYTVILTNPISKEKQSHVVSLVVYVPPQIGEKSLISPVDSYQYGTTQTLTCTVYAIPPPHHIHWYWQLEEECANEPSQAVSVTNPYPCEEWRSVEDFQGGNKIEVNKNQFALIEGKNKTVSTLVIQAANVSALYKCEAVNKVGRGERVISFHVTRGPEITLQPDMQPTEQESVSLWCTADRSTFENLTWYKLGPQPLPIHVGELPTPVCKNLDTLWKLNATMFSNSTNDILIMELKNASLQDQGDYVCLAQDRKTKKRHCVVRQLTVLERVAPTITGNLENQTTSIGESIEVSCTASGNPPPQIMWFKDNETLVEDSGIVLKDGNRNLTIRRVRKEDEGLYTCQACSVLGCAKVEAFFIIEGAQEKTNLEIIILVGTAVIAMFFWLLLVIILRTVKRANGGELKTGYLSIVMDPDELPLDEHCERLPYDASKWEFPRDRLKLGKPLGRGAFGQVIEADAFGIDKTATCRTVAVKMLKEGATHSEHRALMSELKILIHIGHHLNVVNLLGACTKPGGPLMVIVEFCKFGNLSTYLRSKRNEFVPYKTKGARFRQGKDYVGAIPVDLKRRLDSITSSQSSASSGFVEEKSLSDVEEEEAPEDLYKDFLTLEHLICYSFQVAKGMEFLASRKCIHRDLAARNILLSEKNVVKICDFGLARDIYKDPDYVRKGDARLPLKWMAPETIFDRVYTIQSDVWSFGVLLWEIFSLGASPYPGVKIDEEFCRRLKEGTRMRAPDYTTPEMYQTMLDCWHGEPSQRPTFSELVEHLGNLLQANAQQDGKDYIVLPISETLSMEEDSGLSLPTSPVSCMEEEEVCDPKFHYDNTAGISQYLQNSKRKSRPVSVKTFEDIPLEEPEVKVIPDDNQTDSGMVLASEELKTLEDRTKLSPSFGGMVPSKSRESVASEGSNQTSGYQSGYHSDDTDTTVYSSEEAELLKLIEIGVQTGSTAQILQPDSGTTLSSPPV
Procedure: as §1, §2, §3

T1 sequence (P08069 31-1367): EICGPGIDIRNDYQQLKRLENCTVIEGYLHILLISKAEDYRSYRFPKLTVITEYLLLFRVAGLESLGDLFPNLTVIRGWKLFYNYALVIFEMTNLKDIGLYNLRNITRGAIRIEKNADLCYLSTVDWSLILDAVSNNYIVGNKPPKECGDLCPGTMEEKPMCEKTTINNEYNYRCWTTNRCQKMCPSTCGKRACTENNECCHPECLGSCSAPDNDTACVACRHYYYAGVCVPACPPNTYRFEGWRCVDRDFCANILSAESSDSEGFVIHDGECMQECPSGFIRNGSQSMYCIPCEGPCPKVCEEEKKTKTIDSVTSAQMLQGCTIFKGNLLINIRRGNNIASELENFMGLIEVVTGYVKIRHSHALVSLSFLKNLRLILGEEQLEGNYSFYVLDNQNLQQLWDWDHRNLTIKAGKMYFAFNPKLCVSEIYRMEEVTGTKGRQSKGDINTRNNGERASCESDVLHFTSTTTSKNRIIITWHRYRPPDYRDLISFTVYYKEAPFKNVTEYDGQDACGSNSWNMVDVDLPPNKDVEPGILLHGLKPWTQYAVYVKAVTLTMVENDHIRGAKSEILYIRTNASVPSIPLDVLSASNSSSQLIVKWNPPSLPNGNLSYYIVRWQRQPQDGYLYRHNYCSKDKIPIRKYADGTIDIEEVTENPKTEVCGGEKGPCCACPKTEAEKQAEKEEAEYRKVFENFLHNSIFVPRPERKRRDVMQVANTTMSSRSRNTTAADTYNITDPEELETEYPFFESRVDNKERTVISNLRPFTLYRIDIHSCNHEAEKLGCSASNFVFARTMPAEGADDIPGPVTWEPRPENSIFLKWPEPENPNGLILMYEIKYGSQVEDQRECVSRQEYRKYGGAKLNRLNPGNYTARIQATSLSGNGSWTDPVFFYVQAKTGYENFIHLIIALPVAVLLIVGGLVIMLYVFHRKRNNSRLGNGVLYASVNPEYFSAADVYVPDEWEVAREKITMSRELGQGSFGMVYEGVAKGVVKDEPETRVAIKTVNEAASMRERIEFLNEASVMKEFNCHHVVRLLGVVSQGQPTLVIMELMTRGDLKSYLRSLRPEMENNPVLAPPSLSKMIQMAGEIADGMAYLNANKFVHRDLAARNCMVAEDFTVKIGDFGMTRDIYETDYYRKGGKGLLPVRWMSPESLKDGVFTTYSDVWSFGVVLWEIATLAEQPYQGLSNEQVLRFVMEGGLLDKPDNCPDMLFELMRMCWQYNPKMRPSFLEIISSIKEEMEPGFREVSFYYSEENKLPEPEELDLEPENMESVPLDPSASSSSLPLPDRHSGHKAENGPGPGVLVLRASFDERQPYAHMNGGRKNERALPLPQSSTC

SMILES	IC50 (IGF-1 R) [nM]	IC50 (SRC kinase) [nM]	IC50 (VEGF-R2) [nM]
Cc1cccc(Nc2nc3nonc3nc2NN=Cc2ccc(-c3ccc(Cl)c(C(=O)O)c3)o2)c1C [Example 2]	< 1000	< 1000	< 2000
Fc1ccc(Nc2nc3nonc3nc2NN=Cc2cc3ccccc3o2)cc1Cl [Example 172, [6-(N′-Benzofuran-2-ylmethylene-hydrazino)-[1,2,5]oxadiazolo[3,4-b]pyrazin-5-yl]-(3-chloro-4-fluoro-phenyl)-amine]	< 1000	< 1000	< 2000
Clc1ccc(Nc2nc3nonc3nc2NN=Cc2ccco2)cc1Cl [Example 197, (3,4-Dichloro-phenyl)-[6-(N′-furan-2-ylmethylene-hydrazino)-[1,2,5]-oxadiazolo[3,4-b]pyrazin-5-yl]-amine]	< 1000	< 1000	
Fc1ccc(Nc2nc3nonc3nc2NN=Cc2ccc(-c3ccccc3)o2)cc1Cl [Example 175, (3-Chloro-4-fluoro-phenyl)-{6-[N′-(5-phenyl-furan-2-ylmethylene)-hydrazino]-[1,2,5]oxadiazolo [3,4-b]pyrazin-5-yl}-amine]	< 1000	< 1000	
CCOC(=O)c1ccc(Nc2nc3nonc3nc2NN=Cc2cccc([N+](=O)[O-])c2O)cc1 [Example 37, 4-{6-[N′-(2-Hydroxy-3-nitro-benzylidene)-hydrazino]-[1,2,5]oxadiazolo[3,4-b]pyrazin-5-ylamino}-benzoic Acid Ethyl Ester]		< 1000	
O=C(O)c1ccc(-c2ccc(C=NNc3nc4nonc4nc3Nc3ccc(F)c(Cl)c3)o2)cc1 [Example 179]	< 1000	< 1000	< 2000
O=[N+]([O-])c1ccc(-c2ccc(C=NNc3nc4nonc4nc3Nc3ccc(F)cc3)o2)cc1 [Example 39, (4-Fluoro-phenyl)-(6-{N′-[5-(4-nitro-phenyl)-furan-2-ylmethylene]-hydrazino}-[1,2,5]oxadiazolo[3,4-b]pyrazin-5-yl)-amine]	< 1000	< 1000	
COc1ccc(O)c(C=NNc2nc3nonc3nc2Nc2ccc(F)c(Cl)c2)c1 [Example 167]		< 1000	
O=C(O)c1ccc(C=NNc2nc3nonc3nc2Nc2cccc(Cl)c2)cc1 [Example 143]	< 1000		
O=C1Nc2ccccc2C1=NNc1nc2nonc2nc1Nc1ccc(F)c(Cl)c1 [Example 182, 3-{1[6-(3-Chloro-4-fluoro-phenylamino)-[1,2,5]oxadiazolo[3,4-b]pyrazin-5-yl]-hydrazono}-1,3-dihydro-indol-2-one]	< 1000	< 1000	< 2000
O=[N+]([O-])c1cccc(-c2ccc(C=NNc3nc4nonc4nc3Nc3ccc(F)cc3)o2)c1 [Example 135, (4-Fluoro-phenyl)-(6-{N′-[5-(3-nitro-phenyl)-furan-2-ylmethylene]-hydrazino}-[1,2,5]oxadiazolo [3,4-b]pyrazin-5-yl)-amine]	< 1000	< 1000	
Oc1c(I)cc(I)cc1C=NNc1nc2nonc2nc1Nc1cccc(Br)c1 [Example 35]	< 1000	< 1000	< 2000
Oc1c(Br)cc(Br)cc1C=NNc1nc2nonc2nc1Nc1cccc(Cl)c1 [Example 151]	< 1000	< 1000	
O=C1Nc2ccccc2C1=NNc1nc2nonc2nc1Nc1ccc(Cl)c(Cl)c1 [Example 201, 3-{[6-(3,4-Dichloro-phenylamino)-[1,2,5]oxadiazolo [3,4-b]pyrazin-5-yl]-hydrazono}-1,3-dihydro-indol-2-one]	< 1000	< 1000	< 2000
O=C(O)c1cccc(C=NNc2nc3nonc3nc2Nc2ccc(Cl)c(Cl)c2)c1 [Example 186]	< 1000	< 1000	< 2000
COc1cccc(C=NNc2nc3nonc3nc2Nc2ccc(Cl)c(Cl)c2)c1O [Example 192]	< 1000		
Oc1c(Br)cc(Cl)cc1C=NNc1nc2nonc2nc1Nc1ccc(Cl)c(Cl)c1 [Example 14]	< 1000	< 1000	< 2000
Clc1ccc(Nc2nc3nonc3nc2NN=Cc2ccc(-c3ccccc3)o2)cc1Cl [Example 195, (3,4-Dichloro-phenyl)-{6-[N′-(5-phenyl-furan-2-ylmethylene)-hydrazino]-[1,2,5]oxadiazolo[3,4-b]pyrazin-5-yl}-amine]		< 1000	

SMILES	IC50 (IGF-1 R) [nM]	IC50 (SRC kinase) [nM]	IC50 (VEGF-R2) [nM]
O=[N+]([O-])c1cc(-c2ccc(C=NNc3nc4nonc4nc3Nc3cccc(C(F)(F)F)c3)o2)ccc1Cl [Example 36, (6-{N-[5-(4-Chloro-3-nitro-phenyl)-furan-2-ylmethylene]-hydrazino}-[1,2,5]oxadiazolo [3,4-b]pyrazin-5-yl)-(3-trifluoromethyl-phenyl)-amine]	< 1000	< 1000	
COc1cc(Br)cc(C=NNc2nc3nonc3nc2Nc2cccc(Cl)c2)c1O [Example 152]	< 1000	< 1000	< 2000
NC(=O)c1cccc(-c2ccc(C=NNc3nc4nonc4nc3Nc3ccc(F)c(Cl)c3)o2)c1 [Example 178]	< 1000	< 1000	< 2000
Oc1c(Br)cc(Br)cc1C=NNc1nc2nonc2nc1Nc1ccc(Cl)cc1 [Example 30]	< 1000	< 1000	
O=[N+]([O-])c1cccc(-c2ccc(C=NNc3nc4nonc4nc3Nc3ccc(F)c(Cl)c3)o2)c1 [Example 174, (3-Chloro-4-fluoro-phenyl)-(6-{N′-[5-(3-nitro-phenyl)-furan-2-ylmethylene]-hydrazino}-[1,2,5]oxadiazolo[3,4-b]pyrazin-5-yl)-amine]	< 1000	< 1000	< 2000
O=[N+]([O-])c1cccc(-c2ccc(C=NNc3nc4nonc4nc3Nc3cccc(Cl)c3)o2)c1 [Example 155, (3-Chloro-phenyl)-(6-{N′-[5-(3-nitro-phenyl)-furan-2-ylmethylene]-hydrazino}-[1,2,5]oxadiazolo[3,4-b]pyrazin-5-yl)-amine]	< 1000	< 1000	< 2000
O=c1[nH]c2ccc(Nc3nc4nonc4nc3NN=Cc3cc(I)cc(I)c3OCc3ccc(Cl)cc3Cl)cc2[nH]1 [Example 55, 5-(6-{N′-[2-(2,4-Dichloro-benzyloxy)-3,5-diiodo-benzylidene]-hydrazino}-[1,2,5]oxadiazolo[3,4-b]pyrazin-5-ylamino)-1,3-dihydro-benzoimidazol-2-one]	< 1000	< 1000	
NC(=O)c1cccc(-c2ccc(C=NNc3nc4nonc4nc3Nc3ccc(Cl)c(Cl)c3)o2)c1 [Example 198]	< 1000	< 1000	< 2000
Clc1ccc(-c2ccc(C=NNc3nc4nonc4nc3Nc3ccc(Cl)c(Cl)c3)o2)cc1 [Example 200, (6-{N-[5-(4-Chloro-phenyl)-furan-2-ylmethylene]-hydrazino}-[1,2,5]-oxadiazolo[3,4-b]pyrazin-5-yl)-(3,4-dichloro-phenyl)-amine]	< 1000	< 1000	< 2000
O=[N+]([O-])c1cccc(-c2ccc(C=NNc3nc4nonc4nc3Nc3ccccc3)o2)c1 [Example 90, (6-{N′-[5-(3-Nitro-phenyl)-furan-2-ylmethylene]-hydrazino}-[1,2,5]oxadiazolo [3,4-b]pyrazin-5-yl)-phenyl-amine]		< 1000	
Cc1cc(C)c([N+](=O)[O-])cc1-c1ccc(C=NNc2nc3nonc3nc2Nc2ccccc2F)o1 [Example 29, (6-{N′-[5-(2,4-Dimethyl-5-nitro-phenyl)-furan-2-ylmethylene]-hydrazino}-[1,2,5]oxadiazolo[3,4-b]pyrazin-5-yl)-(2-fluoro-phenyl)-amine]	< 1000	< 1000	
Clc1ccc(Nc2nc3nonc3nc2NN=Cc2cc3ccccc3o2)cc1Cl [Example 193, [6-(N′-Benzofuran-2-ylmethylene-hydrazino)-[1,2,5]oxadiazolo[3,4-b]pyrazin-5-yl]-(3,4-dichloro-phenyl)-amine]	< 1000	< 1000	< 2000
COc1ccc(O)c(C=NNc2nc3nonc3nc2Nc2ccc(Cl)c(Cl)c2)c1 [Example 191]	< 1000	< 1000	< 2000
O=C(O)c1ccc(-c2ccc(C=NNc3nc4nonc4nc3Nc3ccc(F)cc3)o2)cc1 [Example 139]	< 1000	< 1000	
C(=NNc1nc2nonc2nc1Nc1ccccc1)c1cc2ccccc2o1 [Example 88, [6-(N′-Benzofuran-2-ylmethylene-hydrazino)-(1,2,5]oxadiazolo[3,4-b]pyrazin-5-yl]-phenyl-amine]		< 1000	
Cc1ccc(Nc2nc3nonc3nc2NN=Cc2ccc(-c3cc(C)cc([N+](=O)[O-])c3C)o2)cc1 [Example 33, (6-[N′-[5-(2,5-Dimethyl-3-nitro-phenyl)-furan-2-ylmethylene]-hydrazino}-[1,2,5]oxadiazolo[3,4-b]pyrazin-5-yl)-p-tolyl-amine]		< 1000	
Fc1ccc(Nc2nc3nonc3nc2NN=Cc2ccc(-c3ccc(Cl)cc3Cl)o2)cc1 [Example 15, (6-{N′-[5-(2,4-Dichloro-phenyl)-furan-2-ylmethylene]-hydrazino}-[1,2,5]oxadiazolo [3,4-b]pyrazin-5-yl)-(4-fluoro-phenyl)-amine]		< 1000	< 2000
